Measured values published in patent publication US20190060330A1, “APPLICATION OF 4-HYDROXY SALICYLANILIDE IN PREPARATION OF ANTI-MYELOMA OR ANTI-LYMPHOMA DRUGS” (priority 2016, published 2019).
Values joined by “and” are separate entries in the source; they are usually repeats but may differ in a detail not shown here. Equal entries are not always repeated.

Tests used:
H929 cells [1] = assay: CCK8 cytotoxicity, H929 multiple myeloma cells; type: cell-based; conditions: Homo sapiens, NCI-H929, 72 h
Procedure: (§1) (1) Cell lines: human multiple myeloma cells (H929 cells, OPM2 cells, U266 cells, OCI-MY5 cells, RPMI 8266 cells) (from ATCC of USA. The cells were passaged and preserved in the applicant's laboratory), were cultured in a 1640 culture medium (containing 10% fetus bovine serum).
(§2) The cells were cultured in 1640 medium (containing 10% fetal bovine serum, pH 7.2) supplemented with 2 mmol/L glutamine. The cells were cultured in a cell culture incubator at 37° C., 5% CO2.
(§3) A single-cell suspension of human multiple myeloma cells (H929 cells, OPM2 cells, U266 cells, OCI-MY5 cells, RPMI 8266 cells) was taken for cell counting, and the cell concentration was adjusted to 2×10^5 cells/mL. 95 μL of the above cell suspension was added into each well of a 96-well culture plate, and then 5 μL of the drug prepared with the medium was added at different concentrations, while the same volume of culture medium was added in the control group. Three parallel wells were set in each group. The plate was subjected to continuous culture for 72 h. 2 hours before the end of the culture, 10 μL of CCK8 reagent was added into each well, and the plate was continued to culture in a CO2 incubator. After 2 hours, the OD value of each well at 450 nm was detected by an automatic microplate reader. […]

OPM2 cells = assay: CCK8 cytotoxicity, OPM2 multiple myeloma cells; type: cell-based; conditions: Homo sapiens, OPM-2, 72 h
Procedure: as §1, §2, §3

U266 cells = assay: CCK8 cytotoxicity, U266 multiple myeloma cells; type: cell-based; conditions: Homo sapiens, U-266, 72 h
Procedure: as §1, §2, §3

OCI-MY5 cells = assay: CCK8 cytotoxicity, OCI-MY5 multiple myeloma cells; type: cell-based; conditions: Homo sapiens, 72 h
Procedure: as §1, §2, §3

RPMI 8266 cells = assay: CCK8 cytotoxicity, RPMI 8266 multiple myeloma cells; type: cell-based; conditions: Homo sapiens, RPMI8266, 72 h
Procedure: as §1, §2, §3

SUDHL-4 cells = assay: CCK8 cytotoxicity, SUDHL-4 lymphoma cells; type: cell-based; conditions: Homo sapiens, SU-DHL-4, 72 h
Procedure: (§4) A single-cell suspension of human multiple myeloma cells (H929 cells, OPM2 cells, U266 cells, OCI-MY5 cells, RPMI 8266 cells) was taken for cell counting, and the cell concentration was adjusted to 2×10^5 cells/mL. 95 μL of the above cell suspension was added into each well of a 96-well culture plate, and then 5 μL of the drug prepared with the medium was added at different concentrations, while the same volume of culture medium was added in the control group. Three parallel wells were set in each group. The plate was subjected to continuous culture for 72 h. 2 hours before the end of the culture, 10 μL of CCK8 reagent was added into each well, and the plate was continued to culture in a CO2 incubator. After 2 hours, the OD value of each well at 450 nm was detected by an automatic microplate reader. Cell viability and inhibition rate were calculated: cell viability (%)=(OD mean of experimental well/OD mean of control well)×100%. Cell inhibition rate (%)=100%−cell viability (%). The fitting function was used to determine the IC50 of the drug concentration when the cell growth was inhibited by 50%. The experiment was in triplicate.
(§5) Cell lines: human lymphoma cells (SUDHL-4 cells, OCI-LY1 cells, OCI-LY8 cells, DB cells, NU-DUL-1 cells, U2932 cells, TMD8 cells)(from ATCC. USA. The cells were passaged and preserved in the applicant's laboratory). IMDM (Gibco Co., USA). […]

OCI-LY1 cells = assay: CCK8 cytotoxicity, OCI-LY1 lymphoma cells; type: cell-based; conditions: Homo sapiens, 72 h
Procedure: as §4, §5

OCI-LY8 cells = assay: CCK8 cytotoxicity, OCI-LY8 lymphoma cells; type: cell-based; conditions: Homo sapiens, 72 h
Procedure: as §4, §5

DB cells = assay: CCK8 cytotoxicity, DB lymphoma cells; type: cell-based; conditions: Homo sapiens, 72 h
Procedure: as §4, §5

NU-DUL-1 cells = assay: CCK8 cytotoxicity, NU-DUL-1 lymphoma cells; type: cell-based; conditions: Homo sapiens, 72 h
Procedure: as §4, §5

U2932 cells = assay: CCK8 cytotoxicity, U2932 lymphoma cells; type: cell-based; conditions: Homo sapiens, 72 h
Procedure: as §4, §5

TMD8 cells = assay: CCK8 cytotoxicity, TMD8 lymphoma cells; type: cell-based; conditions: Homo sapiens, 72 h
Procedure: as §4, §5

H929 cells [2] = assay: Animal experiment for multiple myeloma: subcutaneous H929 tumors in nude mice; type: in vivo, BALB/C nude mice; conditions: 50 mg/kg per day, caudal vein
Procedure: (1) Cell line: human multiple myeloma cells (H929 cells) (from ATCC, USA. The cells were passaged and preserved in the applicant's laboratory), were cultured in a 1640 culture medium (containing 10% fetus bovine serum).
(2) Experimental animals: Male BALB/C nude mice (4-6 week old, purchased from Shanghai Sippr-BK laboratory animal Co. Ltd), were housed in an SPF condition (Center Laborotory Animal Room, Shanghai Tenth People's Hospital).
The cells were cultured in 1640 a 1640 culture medium (containing 10% fetus bovine serum, pH 7.2) supplemented with 2 mmol/L glutamine. The resultant was cultured in a incubator at 37° C. under 5% CO2 environment.
The 1640 medium containing 3.5×10^6 H929 cells was injected subcutaneously into the right axilla of the nude mice, and when the tumors grew to a measurable size, the mice were randomly assigned into the control group and the administration group. The nude mice in the administration group were injected through caudal vein with 4-hydroxy salicylanilide at 50 mg/kg and 100 mg/kg per day. The nude mice in the control group were injected with the same volume of solvent (200 μL, 5% DMSO+4% castor oil+91% normal saline). The tumor sizes were measured every two days (measuring the length and width of the tumor, tumor volume=0.5×(width)^2×length). The mice were sacrificed after a 22-day administration and the tumors were taken for taking photos.

O=C(Nc1ccc(O)cc1)c1ccccc1O
IC50 (H929 cells [1]): 179 µM | IC50 (OPM2 cells): 84 µM | IC50 (U266 cells): 271 µM | IC50 (OCI-MY5 cells): 211 µM | IC50 (RPMI 8266 cells): 170 µM | IC50 (SUDHL-4 cells): 73 µM | IC50 (OCI-LY1 cells): 117 µM | IC50 (OCI-LY8 cells): 76 µM | IC50 (DB cells): 178 µM | IC50 (NU-DUL-1 cells): 188 µM | IC50 (U2932 cells): 156 µM | IC50 (TMD8 cells): 164 µM | Tumor volume, individual mice No. 1-4 (H929 cells [2]; day 0): 0.08 cm^3 (2×) and 0.11 cm^3 and 0.10 cm^3 | Tumor volume, mean (H929 cells [2]; day 0): 0.10 cm^3 | Tumor volume, individual mice No. 1-4 (H929 cells [2]; day 2): 0.15 cm^3 (2×) and 0.17 cm^3 and 0.11 cm^3 | Tumor volume, mean (H929 cells [2]; day 2): 0.15 cm^3 | Tumor volume, individual mice No. 1-4 (H929 cells [2]; day 4): 0.24 cm^3 and 0.25 cm^3 and 0.22 cm^3 and 0.14 cm^3 | Tumor volume, mean (H929 cells [2]; day 4): 0.21 cm^3 | Tumor volume, individual mice No. 1-4 (H929 cells [2]; day 6): 0.38 cm^3 (2×) and 0.30 cm^3 and 0.27 cm^3 | Tumor volume, mean (H929 cells [2]; day 6): 0.33 cm^3 | Tumor volume, individual mice No. 1-4 (H929 cells [2]; day 8): 0.58 cm^3 and 0.50 cm^3 and 0.37 cm^3 (2×) | Tumor volume, mean (H929 cells [2]; day 8): 0.45 cm^3 | Tumor volume, individual mice No. 1-4 (H929 cells [2]; day 10): 0.77 cm^3 and 0.63 cm^3 and 0.64 cm^3 and 0.49 cm^3 | Tumor volume, mean (H929 cells [2]; day 10): 0.63 cm^3 | Tumor volume, individual mice No. 1-4 (H929 cells [2]; day 12): 0.99 cm^3 and 0.78 cm^3 and 0.80 cm^3 and 0.74 cm^3 | Tumor volume, mean (H929 cells [2]; day 12): 0.83 cm^3 | Tumor volume, individual mice No. 1-4 (H929 cells [2]; day 14): 1.20 cm^3 and 1.15 cm^3 and 0.97 cm^3 and 1.03 cm^3 | Tumor volume, mean (H929 cells [2]; day 14): 1.09 cm^3 | Tumor volume, individual mice No. 1-4 (H929 cells [2]; day 16): 1.53 cm^3 and 1.47 cm^3 and 1.31 cm^3 and 1.35 cm^3 | Tumor volume, mean (H929 cells [2]; day 16): 1.41 cm^3 | Tumor volume, individual mice No. 1-4 (H929 cells [2]; day 18): 2.08 cm^3 and 1.81 cm^3 and 1.54 cm^3 and 1.71 cm^3
